Data taken from US20020132853A1, “Capsaicin receptor ligands” (priority 2000, published 2002).
Like-named read-outs stand apart in the source and are kept apart here.

Target: T1, human capsaicin receptor (Homo sapiens, UniProt Q8NER1)
T1 construct: expression consrtuct encoding the full length human capsaicin receptor; expressed in transfected cells
Test: Antagonist assay for Capsaicin receptor mediated calcium mobilization
Format: cell-based
Conditions: read-out: EC50 (the source's name)
Protocol: Calcium Mobilization Assay
Cells transfected with expression plasmids (as described in Example 10) and thereby expressing the human capsaicin receptor are seeded and grown to 70-90% confluency in FALCON black-walled, clear-bottomed 96-well plates (#3904, BECTON-DICKINSON, Franklin Lakes, N.J.) . The culture media are emptied from the 96 well plates and FLUO-3 AM calcium sensitive dye (Molecular Probes, Eugene, OR) is added to each well (dye solution: 1 mg FLUO-3 AM, 440 uL DMSO and 440 ul 20% pluronic acid in DMSO, diluted 1:4, 50 ul diluted solution per well). Plates are covered with aluminum foil and incubated at 37° C for 1-2 hours in an environment containing 5% CO2. After the incubation the dye is emptied from the plates, and the cells are washed once with Krebs-Ringer HEPES (KRH) buffer (25 mM HEPES, 5 mM KCl, 0.96 mM NaH2PO4, 1 MM MgSO4, 2 mM CaCl2, 5 mM glucose, 1 mM probenecid, pH 7.4), and resuspended in KRH buffer.
Agonist (e.g., olvanil, capsaicin, or RTX)-induced calcium mobilization is monitored using either FLUOROSKAN ASCENT (Labsystems, Franklin, Mass.) or FLIPR (fluorometric imaging plate reader system, Molecular Devices, Sunnyvale, Calif.) instruments. Similarly, varying concentrations of the antagonists ruthenium red or capsazepine are added to cells concurrently with agonist (e.g., 25-50 nM capsaicin). For agonist-induced calcium responses, data obtained between 30 and 60 seconds after agonist application are used to generate the EC50 values. […] software (Synergy Software, Reading, Pa.) was utilized to fit the data to the equation: […]
to determine the EC50 for the response. In this equation, y is the maximum fluorescence signal, x is the concentration of the agonist or antagonist, a is the Emax, b corresponds to the EC50 or IC50 value, and finally, c is the Hill coefficient.
Assay for Determination of Capsaicin Receptor Antagonist Effects
In order to measure the ability of a test compound to antagonize (inhibit) the response of cells expressing capsaicin receptors to capsaicin or other vanilloid agonist, the EC50 of capsaicin is first determined.
An additional 20 ul of KRH buffer and 1 ul DMSO is added to each well of cells, prepared as described above. 100 ul capsaicin in KRH buffer is automatically transferred by the FLIPR instrument to each well.
Test compounds are dissolved in DMSO, diluted in 20 ul KRH buffer so that the final concentration of test compounds in the assay well is between 1 uM and 5 uM, and added to cells prepared as described above. The 96 well plates containing prepared cells and test compounds are incubated in the dark, at room temperature for 0.5-6 hours. It is important that the incubation not continue beyond 6 hours. Just prior to determining the fluorescence response, 100 ul capsaicin in KRH buffer at twice the EC50 concentration determined from the concentration response curve is automatically added by the FLIPR instrument to each well of the 96 well plate for a final sample volume of 200 ul and a final capsaicin concentration equal to the EC50. The final concentration of test compounds in the assay wells is between 1 uM and 5 uM. […] Antagonists of the capsaicin receptor decrease this response by about 20%, preferably by about 50%, and most preferably by at least 80% as compared to matched control. The concentration of antagonist required to provide a 50% decrease is the EC50 for the antagonist (also referred to as the IC50).

T1 sequence (Q8NER1 whole entry): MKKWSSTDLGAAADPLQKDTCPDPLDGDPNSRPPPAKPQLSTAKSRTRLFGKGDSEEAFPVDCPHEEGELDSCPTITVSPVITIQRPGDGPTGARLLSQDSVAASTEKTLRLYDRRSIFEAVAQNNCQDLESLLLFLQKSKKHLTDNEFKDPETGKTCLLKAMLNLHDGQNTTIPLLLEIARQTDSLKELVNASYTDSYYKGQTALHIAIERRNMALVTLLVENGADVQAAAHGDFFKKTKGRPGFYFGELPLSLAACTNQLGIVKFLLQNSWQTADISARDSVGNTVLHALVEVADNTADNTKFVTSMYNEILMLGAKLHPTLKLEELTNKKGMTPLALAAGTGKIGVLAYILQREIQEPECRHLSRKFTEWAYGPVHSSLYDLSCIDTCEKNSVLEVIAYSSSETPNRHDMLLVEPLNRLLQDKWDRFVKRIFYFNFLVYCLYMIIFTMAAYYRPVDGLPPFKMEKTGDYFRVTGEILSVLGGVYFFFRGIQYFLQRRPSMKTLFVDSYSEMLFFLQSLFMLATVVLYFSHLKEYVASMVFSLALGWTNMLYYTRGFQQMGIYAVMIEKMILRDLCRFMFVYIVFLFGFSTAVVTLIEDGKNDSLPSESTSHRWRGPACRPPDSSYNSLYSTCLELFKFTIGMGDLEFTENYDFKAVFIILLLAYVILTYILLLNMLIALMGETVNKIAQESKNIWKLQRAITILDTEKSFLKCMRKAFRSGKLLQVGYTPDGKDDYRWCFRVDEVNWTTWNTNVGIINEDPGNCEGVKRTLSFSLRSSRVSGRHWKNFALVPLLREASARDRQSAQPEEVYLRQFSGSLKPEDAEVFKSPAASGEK

IC50 (Table III) [µM] | IC50 (Table V) [µM] | Structure (SMILES) | also measured
< 1 | – | CC(C)c1ccc(NC(=O)N2C(C)CN(c3ncccc3Cl)CC2C)cc1 (stereo not shown) [Compound 33, 4-(3-chloropyridin-2-yl)-N-(4-isopropylphenyl)-2,6-dimethylpiperazine-1-carboxamide] | –
< 1 | – | CC(C)c1ccc(NC(=O)N2CCN(c3ncccc3Cl)C[C@H]2C)cc1 [Compound 22, (2R)-4-(3-chloropyridin-2-yl)-N-(4-isopropylphenyl)-2-methylpiperazine-1-carboxamide] | –
– | < 1 | CCC(C)c1ccc(NC(=O)N2CCN(c3ncccc3F)C[C@H]2C)cc1 (stereo partly drawn) [Compound 128, (2R)-N-(4-sec-butylphenyl)-4-(3-fluoropyridin-2-yl)-2-methylpiperazine-1-carboxamide] | –
– | < 1 | C[C@@H]1CN(c2ncccc2S(N)(=O)=O)CCN1C(=O)Nc1ccc(C(C)(C)C)cc1 [Compound 139, (2R)-4-[3-(aminosulfonyl)pyridin-2-yl]-N-(4-tert-butylphenyl)-2-methylpiperazine-1-carboxamide] | –
< 1 | – | CC1CN(c2ncccc2Cl)CC(C)N1C(=O)Nc1ccc(C2CCCCC2)cc1 (stereo not shown) [Compound 35, 4-(3-chloropyridin-2-yl)-N-(4-cyclohexylphenyl) 2,6-dimethylpiperazine-1-carboxamide] | –
< 1 | – | C[C@@H]1CN(c2ncccc2Cl)CCN1C(=O)Nc1ccc(C2CCOCC2)cc1 [Compound 49, (2R)-4-(3-chloropyridin-2-yl)-2-methyyl-N-(4-tetrahydro-2H-pyran-4-ylphenyl)piperazne-1-carboxamide] | –
< 1 | – | C[C@@H]1CN(c2ncccc2Cl)CCN1C(=O)Nc1ccc(C2(O)CCOCC2)cc1 [Compound 50, (2R)-4-(3-chloropyridin-2-yl)-N-[4-(4-hydroxytetrahydro-2H-pyran-4-yl)phenyl]-2-methylpiperazine-1-carboxamide] | –
< 1 | – | COc1cccnc1N1CCN(C(=O)Nc2ccc(C3CCCCC3)cc2)[C@H](C)C1 [Compound 47, (2R)-N-(4-cyclohexylphenyl)-4-(3-methoxypyridin-2-yl)-2-methylpiperazine-1-carboxamide] | –
– | < 1 | O=C(Nc1ccc(OC(F)(F)F)cc1)N1CCN(c2ncccc2C(F)(F)F)CC1 [Compound 117, N-[4-(trifluoromethoxy)phenyl]-4-[3-(trifluoromethyl)pyridin-2-yl]piperazine-1-carboxamide] | –
< 1 | – | C[C@@H]1CN(c2nccc3ccccc23)CCN1C(=O)Nc1ccc(C(C)(C)C)cc1 [Compound 39, (2R)-N-(4-tert-butylphenyl)-4-isoquinolin-1-yl-2-methylpiperazine-1-carboxamide] | –
< 1 | – | CCC1CN(c2ncccc2Cl)CCN1C(=O)Nc1ccc(C(C)C)cc1 (stereo not shown) [Compound 60, 4-(3-chloropyridin-2-yl)-2-ethyl-N-[4-isopropylphenyl)piperazine-1-carboxamide] | –
< 1 | – | C[C@H]1CN(c2ncccc2Cl)CCN1C(=O)Nc1ccc(C(F)(F)F)cc1 [Compound 23, (2S)-4-(3-chloropyridin-2-yl)-N-(4-trifluoromethylphenyl)-2-methylpiperazine-1-carboxamide] | –

The next lines start with the molecule.

Structure (SMILES) | IC50 (Table III) [µM] | IC50 (Table V) [µM] | also measured
C[C@@H]1CN(c2nccc3ccccc23)CCN1C(=O)Nc1ccc(C2CCCCC2)cc1 [Compound 42, (2R)-N-(4-cyclohexylphenyl)-4-isoquinolin-1-yl-2-methylpiperazine-1-carboxamide] | < 1 | – | –
O=C(Nc1ccc(Cl)cc1)N1CCN(c2cc(C(F)(F)F)ccn2)CC1 [Compound 107, N-(4-chlorophenyl)-4-[4-(trifluoromethyl)pyridin-2-yl]piperazine-1-carboxamide] | – | < 1 | –
COCC(C)(C)c1ccc(NC(=O)N2CCN(c3ncccc3C(F)(F)F)C[C@H]2C)cc1 [Compound 55, (2R)-N-[4-(2-methoxy-1,1-dimethylethyl)phenyl]-2-methyl-4-[3-(trifluoromethyl)pyridin-2-yl]piperazine-1-carboxamide] | < 1 | – | –
C[C@@H]1CN(c2ncccc2C(F)(F)F)CCN1C(=O)Nc1ccc(C(F)(F)F)cc1 [Compound 28, (2R)-2-methyl-N-[4-(trifluoromethyl)phenyl]-4-[3-(trifluoromethyl)pyridin-2-yl]piperazine-1-carboxamide] | < 1 | – | –
C[C@@H]1CN(c2ncccc2Cl)CCN1C(=O)Nc1ccc(Br)c(C(F)(F)F)c1 [Compound 156, (2R)-N-[4-bromo-3-(trifluoromethyl)phenyl]-4-(3-chloropyridin-2-yl)-2-methylpiperazine-1-carboxamide] | – | < 1 | –
C[C@@H]1CN(c2ncccc2Cl)CCN1C(=O)Nc1ccc(C(F)(C(F)(F)F)C(F)(F)F)cc1 [Compound 162, (2R)-4-(3-chloropyridin-2-yl)-2-methyl-N-{4-[1,2,2,2-tetrafluoro-1-(trifluoromethyl)ethyl]phenyl}piperazine-1-carboxamide] | – | < 1 | –
COc1cccc(NC(=O)N2CCN(c3ncccc3C(F)(F)F)CC2)c1 [Compound 113, N-(3-methoxyphenyl)-4-[3-(trifluoromethyl)pyridin-2-yl]piperazine-1-carboxamide] | – | < 1 | –
C[C@@H]1CN(c2ncccc2Cl)CCN1C(=O)Nc1cccc(I)c1 [Compound 150, (2R)-4-(3-chloropyridin-2-yl)-N-(3-iodophenyl)-2-methylpiperazine-1-carboxamide] | – | < 1 | –
O=C(Nc1ccc(Cl)c([N+](=O)[O-])c1)N1CCN(c2ncccc2C(F)(F)F)CC1 [Compound 118, N-(4-chloro-3-nitrophenyl)-4-[3-(trifluoromethyl)pyridin-2-yl]piperazine-1-carboxamide] | – | < 1 | –
C[C@@H]1CN(c2ncccc2Cl)CCN1C(=O)Nc1ccc2c(c1)Cc1ccccc1-2 [Compound 142, (2R)-4-(3-chloropyridin-2-yl)-N-(9H-flouren-2-yl)-2-methylpiperazine-1-carboxamide] | – | < 1 | –
CCCCc1ccc(NC(=O)N2CCN(c3ncccc3Cl)C[C@H]2C)cc1 [Compound 152, (2R)-N-(4-butylphenyl)-4-(3-chloropyridin-2-yl)-2-methylpiperazine-1-carboxamide] | – | < 1 | –
C[C@@H]1CN(c2nccnc2Cl)CCN1C(=O)Nc1ccc(C(C)(C)C)cc1 [Compound 95, (2R)-N-(4-tert-butylpghenyl)-4-(3-chloropyrazin-2-yl)-2-methylpiperazine-1-carboxamide] | – | – | IC50 (Table IV): < 1 µM
CCC1CN(c2ncccc2C(F)(F)F)CCN1C(=O)Nc1ccc(C(C)C)cc1 (stereo not shown) [Compound 63, 2-ethyl-N-(4-isopropylphenyl)-4-[3-(trifluoromethyl)pyridin-2-yl]piperazine-1-carboxamide] | < 1 | – | –
O=C(Nc1ccc(OC(F)(F)F)cc1)N1CCN(c2cc(C(F)(F)F)ccn2)CC1 [Compound 108, N-[4-*trifluoromethoxy)phenyl]-4-[4-(trifluoromethyl)pyririn-2-yl]piperazine-1-carboxamide] | – | < 1 | –
CC(C)C1CCC(NC(=O)N2CCN(c3ncccc3Cl)C[C@H]2C)CC1 (stereo partly drawn) [Compound 100, (2R)-4-(3-chloropyridin-2-yl)-N-(4-isopropylcyclohexyl)-2-methylpiperazine-1-carboxamide] | – | – | IC50 (Table IV): < 1 µM
C[C@@H]1CN(c2nccnc2Cl)CCN1C(=O)Nc1ccc(C2CCCCC2)cc1 [Compound 166, (2R)-4-(3-chloropyrazin-2-yl)-2-methyl-N-{4-cyclohexyl-phenyl}piperazine-1-carboxamide] | – | – | IC50 (Table VI): < 1 µM
